Source: PubChem BioAssay AID2719 (The Scripps Research Institute Molecular Screening Center, 2010)

Target: Mucolipin-3 (Homo sapiens) (UniProt Q8TDD5)
Experiment: calcium influx via TRP channels, profiling panel, selectivity assay for selective TRPML3 agonist project, cell-based, HEK293 transfected, Fura-2 ratio imaging (AID 2719)
Settings: fura-2 calcium ratio, at 10 µM, hits give high values

Sequence of Mucolipin-3 (Homo sapiens) (Q8TDD5 whole entry, looked up): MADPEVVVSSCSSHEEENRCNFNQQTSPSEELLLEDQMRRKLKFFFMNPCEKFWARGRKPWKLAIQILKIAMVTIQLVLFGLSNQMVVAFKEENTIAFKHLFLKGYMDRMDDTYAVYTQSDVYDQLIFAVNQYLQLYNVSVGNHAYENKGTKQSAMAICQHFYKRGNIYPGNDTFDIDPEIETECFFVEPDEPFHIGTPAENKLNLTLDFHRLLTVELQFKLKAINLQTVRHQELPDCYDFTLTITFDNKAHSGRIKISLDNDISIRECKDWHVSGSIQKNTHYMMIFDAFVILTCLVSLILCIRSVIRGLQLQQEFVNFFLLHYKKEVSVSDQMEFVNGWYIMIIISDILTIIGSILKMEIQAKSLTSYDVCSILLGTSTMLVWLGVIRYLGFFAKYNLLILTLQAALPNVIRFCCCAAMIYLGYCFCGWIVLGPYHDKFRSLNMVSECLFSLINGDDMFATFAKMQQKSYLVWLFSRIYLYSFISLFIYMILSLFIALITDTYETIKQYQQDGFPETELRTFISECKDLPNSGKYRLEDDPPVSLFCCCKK

Row | Compound | fura-2 ratio change (340/380)
1 | CCOc1ccc(S(=O)(=O)N2CCCCCC2)c2ccccc12 | 1
2 | Cc1ccc(S(=O)(=O)n2nccc2-c2c(-c3ccc(Cl)cc3)noc2C)cc1 | 0.72
3 | CC1CCN(S(=O)(=O)c2ccc(C(C)C)cc2)CC1 | 0.52
